According to patent publication US20240209353A1, “NADK2 INHIBITION IN CANCER AND FIBROTIC DISORDERS” (Memorial Sloan-Kettering Cancer Center, priority 2021, published 2024):
Where “and” joins values, the source holds several entries; their conditions need not be identical. Identical values can stand only once.

Test system: DLD1-OMP25HA cells
Assay: LC-MS metabolomic profiling, whole cell samples
Assay type: cell-based, human
Details: DLD1-OMP25HA sgCtrl + Piericidin 5 μM 2 hours, rep01-rep03
Experimental: Rapid immunopurification of mitochondria was performed following the published methodology (4). In brief, cells with control or NADK2 knockout were engineered to express the HA-tagged OMP25 protein (Addgene, 83356); or in the case of FIG. 5E, parental DLD1 cells were engineered to express the HA-tagged OMP25 protein or the Myc-tagged OMP25 protein (Addgene, 83355), 30 million cells were washed and dounce homogenized in KPBS (136 mM KCl and 10 mM KH2PO4, pH 7.25). The homogenate was then cleared by centrifugation and the supernatant was applied to anti-HA beads (Thermo Fisher, 88837) and incubated with rotation for 3.5 min. The resultant beads were washed with KPBS and were eluted for different downstream analyses: Triton X-100 lysis buffer (50 mM Tris-HCl, pH 7.4, 150 mM NaCl, 1 mM EDTA, 1% (vol/vol) Triton X-100, and protease inhibitors) was used to elute mitochondria for Western blot analysis; 80:20 methanol:water containing 1.5 μM ^13C^15N labeled amino acids (Cambridge Isotope Laboratories, MSK-A2-1.2) was used to elute mitochondria for liquid chromatography-mass spectrometry (LC-MS) analysis; 80:20 methanol:water was used to elute mitochondria for NAD(H) and NADP(H) measurements; glutathione lysis buffer (see below) was used to elute mitochondria for GSH measurements.
For negative ionization mode liquid chromatography separation was achieved on an iHILIC-(P) Classic column (100 mm×2.1 mm, 5 μm particle size, HILICON). Mobile phase A was 10 mM ammonium bicarbonate in 10:90 acetonitrile:water with 5 μM medronic acid, pH 9.4 and mobile phase B was 10 mM ammonium bicarbonate in 90:10 acetonitrile:water with 5 μM medronic acid, pH 9.4). The gradient was 0 min, 95% B; 15 min, 50% B; 18 min, 50% B; 19 min, 95% B; 19.10 min, 95% B; 25.5 min, 95% B; 2 mins posttime. Other LC parameters were: flow rate: 200 μL/min; column temperature: 40° C., and injection volume was 2 μL. MS parameters were: gas temp: 300° C.; gas flow: 10 L/min; nebulizer pressure: 40 psig; sheath gas temp: 350° C.; sheath gas flow: 12 L/min; VCap: 3,000 V; fragmentor: 125 V. Data were acquired from m/z 50-1700 with active reference masses correction (m/z: 121.05087 and 922.00980 (positive mode) or m/z: 119.03632 and 980.01638 (negative mode). Peak identification and integration were done based on in-house exact mass and retention time library built from commercial standards. Data analysis and natural isotope abundance correction were performed using MassHunter Profinder software v10.0 (Agilent Technologies).
For metabolomic profiling of the Mito-IP samples, dried extracts were resuspended in 30 μL of 60:40 acetonitrile:water and an additional 7.5 μL of 100% methanol added to prevent phase separation. Samples were vortexed, incubated on ice for 20 min, and clarified by centrifugation at 20,000 g for 20 min at 4° C. LC-MS analysis was using the iHILIC-(P) Classic negative method described with 6545 Q-TOF mass spectrometer (Agilent Technologies). Whole cell extracts were analyzed in parallel and data analysis was performed using MassHunter Profinder v10.0 software (Agilent Technologies). Metabolite identifications reported were based on either (a) exact mass and retention times matched to authentic standards (denoted as RT in Tables 1A-1G) or (b) exact mass and MS2 spectra match using SIRIUS software (denoted as MS2 in Tables 1A-1G) (https://bio.informatik.uni-jena.de/software/sirius/). Metabolites were considered to be mitochondrial if the average peak area measured in anti-HA Mito-IPs from HA-tagged OMP25 cells was at least 1.5-fold more than in anti-HA Mito-IPs from the control cell expressing Myc-tagged OMP25 (scc Tables 1A-1G; FC>1.5 for [OMP25HA sgCtrl MitoIP vs. OMP25Myc MitoIP]).

For `C/C=C(\C)[C@H](O)[C@H](C)/C=C(C)/C=C/C/C(C)=C/Cc1nc(OC)c(OC)c(O)c1C` [piericidin], the 2-aminoadipate was 146679 and 129247 and 159230, the 2-hydroxyglutarate was 3675897 and 3670344 and 3586833 and the 3-methyl-2-oxovalerate was 3696272 and 2980891 and 4249362. For the same molecule, the 4-acetylbutyrate was 10363291 and 8533694 and 12130178, the 4-hydroxyproline was 522424 and 441928 and 551397 and the “5-methylthioadenosine (MTA)” value was 257749 and 400467 and 367942. The 5-oxoproline was 16393034 and 14068076 and 17132083, the 6-phosphogluconate was 65481 and 57701 and 58966 and the “N6-(delta-isopentenyl)-adenine” value was 293077 and 229998 and 281738. The N-acetyl-beta-alanine was 1022765 and 956905 and 1036571, the N-acetylalanine was 238161 and 214277 and 230562 and the “N-acetylaspartate (NAA)” value was 12095956 and 11050203 and 12351863. For the same molecule, the “N-acetylglucosamine 6-phosphate” value was 428986 and 380372 and 454385, the N-acetylglutamate was 987898 and 1549149 and 871723 and the N-acetylglycine was 43846 and 40358 and 41154. For the same molecule, the N-acetylmethionine was 462515 and 426811 and 428397, the N-acetylserine was 5896001 and 5058414 and 6358391 and the N-acetyltaurine was 1110210 and 1084752 and 1148548. For the same molecule, the N-acetylthreonine was 1380430 and 1226851 and 1295989, the UDP-N-acetylglucosamine was 4639411 and 4238311 and 4998970 and the UDP-glucuronate was 1027925 and 858275 and 1243921. For the same molecule, the aconitate was 346582 and 453318 and 406006, the adenine was 481304 and 768689 and 708555 and the “adenosine 5′-diphosphate (ADP)” value was 1129524 and 1189412 and 1083190. For the same molecule, the “adenosine 5′-monophosphate (AMP)” value was 646021 and 715531 and 648428, the “adenosine 5′-triphosphate (ATP)” value was 2352445 and 2990040 and 2388618 and the alanine was 1663860 and 1344230 and 1765231. The alanylhistidine was 22199 and 41823 and 30446, the allantoin was 3703951 and 3225148 and 4031072 and the arginine was 1086834 and 998509 and 1348136. For the same molecule, the asparagine was 2068551 and 1580346 and 2240202, the aspartate was 1717174 and 1947525 and 1819639 and the beta-glycerophosphoric acid was 850446 and 705915 and 880253. For the same molecule, the betaine was 161649 and 112014 and 159770, the caproate was 114886 and 109032 and 115791 and the carbamoyl aspartate was 3763133 and 3469742 and 3815379. For the same molecule, the carnitine was 43283 and 41086 and 45131, the citrate was 9028971 and 10970194 and 9594217 and the creatine was 549841 and 451406 and 565679. The creatine phosphate was 394087 and 351223 and 410441, the creatinine was 277361 and 240499 and 323168 and the “cytidine 5′-triphosphate (CTP)” value was 81066 and 75474 and 92586. The “dihydroxyacetone phosphate (DHAP)” value was 1214605 and 1228567 and 1670800, the dodecanoate was 303807 and 282352 and 360172 and the “flavin adenine dinucleotide (FAD)” value was 115513 and 108031 and 137050. For the same molecule, the folate was 99228 and 128177 and 134416, the formylpyruvate was 1414077 and 902945 and 1059691 and the “fructose 1,6-biphosphate” value was 1321982 and 1216851 and 1680580. The “fructose 6′-phosphate” value was 57127 and 49316 and 50145, the fumarate was 357661 and 412548 and 377283 and the galactitol was 918739 and 708477 and 1199966. For the same molecule, the galactonic acid was 2240293 and 1677985 and 2390572, the “gamma-aminobutyrate (GABA)” value was 3496195 and 3622488 and 3524195 and the glucosamine was 164826 and 119694 and 178113. The “glucose 6′-phosphate” value was 755029 and 621609 and 531377, the glutamate was 126622339 and 129663305 and 129294077 and the glutamine was 58464656 and 69652329 and 62470821. The “glyceraldehyde 3-phosphate” value was 3045295 and 3098709 and 4229751, the “glycerophosphorylcholine (GPC)” value was 210330 and 183098 and 225230 and the glycine was 146868 and 137614 and 144892. For the same molecule, the glycylaspartate was 205091 and 201360 and 226481, the “guanosine 5′-diphosphate (GDP)” value was 69660 and 69853 and 38046 and the “guanosine 5′-diphosphoglucose” value was 33192 and 34147 and 38993. The “guanosine 5′-monophosphate (GMP)” value was 44633 and 51573 and 51777, the “guanosine 5′-triphosphate (GTP)” value was 171526 and 214847 and 133658 and the histidine was 15027640 and 12343272 and 17476456. The hydroxyphenyllactate was 1478092 and 1166698 and 1355443, the “inosine 5′-monophosphate (IMP)” value was 22897 and 17939 and 22222 and the isoleucine was 4513788 and 3853543 and 5003963. For the same molecule, the lactate was 105521436 and 97172905 and 114401680, the leucine was 7669096 and 6479727 and 8479119 and the lysine was 195097 and 149255 and 233140. For the same molecule, the malate was 12653099 and 10480180 and 12542946, the methionine was 1041135 and 894784 and 1078995 and the “methylthioribulose 1-phosphate” value was 21298086 and 18010540 and 22620900. For the same molecule, the nicotinamide was 39081 and 33023 and 41574, the “nicotinamide adenine dinucleotide (NAD+)” value was 7875605 and 8688241 and 9053967 and the “nicotinamide adenine dinucleotide phosphate (NADP+)” value was 15380 and 19291 and 12614. For the same molecule, the “nicotinamide adenine dinucleotide, reduced (NADH)” value was 455322 and 465048 and 452884, the oleate was 460639 and 248285 and 328228 and the palmitate was 20015231 and 20994808 and 24605738. For the same molecule, the pantothenate was 8937050 and 7961239 and 9124782, the pentadecanoic acid was 302982 and 182808 and 229103 and the phenylacetate was 87967 and 87598 and 109383. For the same molecule, the phenylacetylglycine was 1781914 and 1641866 and 2033368, the phenylalanine was 6841254 and 5972052 and 7346184 and the phosphocholine was 1734241 and 1590770 and 1746457. For the same molecule, the “phosphoenolpyruvate (PEP)” value was 217348 and 206448 and 247608, the proline was 4018244 and 3303744 and 4136919 and the “ribose 5′-phosphate” value was 30487 and 39389 and 44236. The serine was 1972729 and 1697021 and 2115421, the serinylaspartate was 80143 and 82279 and 87822 and the sn-glycero-3-phosphoethanolamine was 3947102 and 4703023 and 3861169. For the same molecule, the stearate was 10555350 and 11041062 and 14072247, the succinate was 468012 and 552589 and 622074 and the taurine was 79062900 and 54111662 and 81152564. For the same molecule, the threonate was 4663562 and 3938483 and 4644285, the threonine was 13508533 and 12463455 and 14159756 and the “thymidine 5′-diphospho-alpha-D-glucose” value was 14725 and 13909 and 14870. For the same molecule, the thymine was 24681 and 21055 and 27340, the tryptophan was 747292 and 595893 and 756562 and the tyrosine was 3847092 and 3576189 and 3918008. The “uridine 5′-diphosphate (UDP)” value was 175584 and 155688 and 210038, the “uridine 5′-monophosphate (UMP)” value was 631970 and 347896 and 460624 and the “uridine 5′-triphosphate (UTP)” value was 3135652 and 2793092 and 3584193. The valine was 1041408 and 903609 and 1081229.
